The values below come from ChEMBL document CHEMBL4354781, “Drug-resistance in Mycobacterium tuberculosis: where we stand” (2019).

What all share (type): functional
The test system of experiment [1] is Mycobacterium tuberculosis. Kind of experiment: Antitubercular activity against Mycobacterium tuberculosis H37Rv ATCC 35822.
Experiment [2] deals with Mycobacterium tuberculosis. Description: Antitubercular activity against Mycobacterium tuberculosis H37Rv ATCC 25618.
In experiment [3] the test system is Mycobacterium tuberculosis. Kind of experiment: Antitubercular activity against Mycobacterium tuberculosis H37Rv ATCC 35820.
Experiment [4] concerns Mycobacterium tuberculosis. Description: Antitubercular activity against Mycobacterium tuberculosis H37Rv ATCC 35838.
The subject of experiment [5] is Mycobacterium tuberculosis. Description: Antitubercular activity against Mycobacterium tuberculosis Kurono ATCC 35812.
Experiment [6] concerns Mycobacterium tuberculosis. Description: Antitubercular activity against Mycobacterium tuberculosis H37Rv ATCC 35837.
The test system of experiment [7] is Mycobacterium tuberculosis. Kind of experiment: Antitubercular activity against Mycobacterium tuberculosis XDR.
The test system of experiment [8] is Mycobacterium tuberculosis. Description: Antitubercular activity against Mycobacterium tuberculosis by radiometric analysis.

Molecules are shown by their SMILES. ≈ marks a conversion by molar mass, not a printed value.

Consider `C[C@]1(COc2ccc(N3CCC(Oc4ccc(OC(F)(F)F)cc4)CC3)cc2)Cn2cc([N+](=O)[O-])nc2O1` [DELAMANID], for which the MIC in experiment [1], in experiment [2], in experiment [3], in experiment [4], in experiment [5] and in experiment [6] was 0.006 to 0.024 µg/mL (≈ 0.0112 to 0.0449 µM) throughout.
`CC(=O)NC[C@H]1CN(c2ccc(N3CCOCC3)c(F)c2)C(=O)O1` [LINEZOLID] showed an MIC in experiment [7] of 0.125 to 0.5 µg/mL (≈ 0.371 to 1.48 µM).
For `O=[N+]([O-])c1cn2c(n1)OC[C@@H](OCc1ccc(OC(F)(F)F)cc1)C2` [PRETOMANID], the MIC in experiment [8] lay in the range of 0.015 to 0.25 µg/mL (≈ 0.0418 to 0.696 µM).

As a reminder, the MIC is the lowest concentration found to suppress growth. Low readings indicate a more susceptible organism, high ones a less susceptible organism.
